The source of these data is US20120283802A1, “FAR-INFRARED RADIATION IN USE OF IMPROVING PATENCY OF ARTERIOVENOUS FISTULA, DECREASING FAILURE OF ARTERIOVENOUS FISTULA MATURATION, AND PREVENTING AND/OR AMELIORATING PERIPHERAL ARTERY DISEASES” (priority 2007, published 2012).

Experiment [1] deals with HO-1 expression. Description: HO-1 expression by western blot quantified by laser densitometry. It is filed as cell-based, Human. The following applies: relative to control cells; SnPP 20 μM per Table 2. Here is the method:
(§1) Human umbilical vein endothelial cells (HUVEC) (Walkersville, Md.) were serially cultured on gelatin-coated dishes and propagated in M199 medium supplemented with 20% bovine calf serum, 2 mM L-glutamine, 50 μg/ml endothelial cell growth factor, 90 μg/ml heparin, and 100 U/ml of penicillin and streptomycin. The cells were treated with FIR for 10 min, 20 min, 40 min using WS™ TY101 FIR emitter (WS Far Infrared Medical Technology Co., Ltd., Taipei, Taiwan). The top emitter was set at a height of 25 cm above the surface of the cells. After FIR treatment, the cells were collected at 0 h, 2 h, 4 h, 6 h, 24 h, and 48 h, and then the expression of HO-1 was analyzed by western blot and quantified by laser densitometry. […]
U937 cells were classified into 10 groups (F, T, TF, STF, HTF, NTF, S, H, N, or C) according to the combination of different treatment, and the experimental conditions of groups are listed in Table 2. […] After 1 hour of incubation, nonadherent monocytes were removed by PBS washing and the radioactivity associated with adherent cells were quantified by scintillation spectrometry after lysis with 0.2% SDS/0.2 N NaOH. Additionally, the expression of HO-1 was analyzed by western blot and quantified by laser densitometry. […]
(In western blotting, separated proteins are transferred to a membrane and probed.)

The subject of experiment [2] is VCAM-1 expression in HUVECs. Kind of experiment: TNF-α-induced VCAM-1 expression in HUVECs, western blot. The class given is cell-based, Human. Here is the method:
as §1, with “densitometry. The cells were lysed in a sample buffer (125 mM Tris [pH 6.8], 12.5% glycerol, 2% SDS, 50 mM sodium fluoride, and trace bromophenol blue) and proteins were separated by SDS-PAGE. Following transfer to a nitrocellulose membrane, blots were blocked with PBS and nonfat milk (5%) and then incubated with antibodies directed against HO-1 (1:500). Membranes were then washed in PBS, incubated with horseradish peroxidase-conjugated goat anti-rabbit or anti-goat antibody and developed with commercial chemoluminescence reagents (Amersham, Arlington Heights, Ill.).” for “densitometry.”
The expression of VCAM-1 was analyzed under different combinations of TNFα, FIR, HO-1 inhibitor by a western blot. […]

With `C=Cc1c2[n-]c(c1C)/C=c1\[n-]/c(c(C)c1C=C)=C\c1[n-]c(c(CCC(=O)O)c1C)/C=c1\[n-]c(c(C)c1CCC(=O)O)=C2.[Sn+4]` [SnPP, tin protoporphyrin], the “HO-1 expression, of that of the control cells” value in experiment [1] is listed as “approximately 20%”. Further, in experiment [2] (TNF-α 100 ng/ml + 40 min FIR, SnPP 10 μM (group 3) and 20 μM (group 4), higher expression at 20 μM), the “FIR-induced inhibitory effect of VCAM-1 expression” value is recorded as “reversed”. In addition, in experiment [2] (single treatment with SnPP 20 μM, without pre-treatment with TNF-α (group 6)), the “expression of VCAM-1” value is “did not induce”.
